Measured values reported in US6309679A, “Method of improving processes using pectinase enzymes with noble gases” (American Air Liquide, priority 1995, dated 2001).

How the values were obtained:
[1] = tested on: Pectinesterase (EC 3.1.1.11); assay: Pectinesterase/p-Nitrophenyl acetate reaction gas run (spectrophotometric, 400 nm); assay type: biochemical, Orange Peel; details: maximum effect, percent change compared to air
Procedure: PECTINESTERASE (P-5400)/p-NITROPHENYL ACETATE (N-8130) GAS RUN PROTOCOL
PURPOSE: Effect of Air, Ne, Ar, Kr, Xe, N2 and 02 on Pectinesterase/p-Nitrophenyl acetate reaction at 10° C., 25° C. and 35° C. (one substrate concentration).
ENZYME: Pectinesterase P-5400
Unit definition: one unit will release 1 μequivalent of acid from pectin per min at pH 7.5 at 30° C.
SUBSTRATE: p-Nitrophenyl acetate N-8130
Soln A: 0.1 M Citric acid--Na2 HPO4 buffer, pH 7.5 25° C.
Soln B: 50 mM Methanolic p-Nitrophenyl acetate (N-8130)
Soln C: p-Nitrophenyl acetate in Soln A
Soln D: Pectinesterase (100 Units/ml) in Soln A
R=2.0 ml Soln C+0.5 ml Soln A
Fill the cuvettes with 2.0 ml of Soln C with a 1 cc syringe.
Fill 8 serum vials with 5.0 ml of Soln D. Stopper and crimp to effect a gas tight system.
(§1) Bubble 4×30 cc of the appropriate gas in T1G1 . . . 5 cuvettes. Refrigerate under 2×10 cc of the appropriate gas. Keep refrigerated at least 15 minutes before running.
(§2) Remove G1 . . . 5 serum vials from fridge. Sample Soln D with 1 cc syringes previously filled with the appropriate gas. Slide the syringes/needle through the silicone but not into the liquid layer, simultaneously push plungers into the liquid and push the plungers simultaneously, run timedrives.
(§3) Bubble 4×30 cc of the appropriate gas in T2G1 . . . 5 cuvettes. Refrigerate under 2×10 cc of the appropriate gas. Keep refrigerated at least 15 minutes before running.
(§4) Bubble 4×30 cc of the appropriate gas in T3G1 . . . 5 cuvettes. Refrigerate under 2×10 cc of the appropriate gas. Keep refrigerated at least 15 minutes before running.

[2] = tested on: Pectinase (EC 3.2.1.15); assay: Pectinase/Pectin reaction gas run (spectrophotometric, 400 nm); assay type: biochemical, Aspergillus niger; details: maximum effect, percent change compared to air
Procedure: PECTINASE (EC 3.2.1.15) (P-9932)/PECTIN (P-9135) GAS RUN PROTOCOL
PURPOSE: Effect of Air, Ne, Ar, Kr, Xe, N2 and O2 on Pectinase/Pectin reaction at 10° C., 25° C. and 35° C. (one substrate concentration).
ENZYME: Pectinase (Sigma No. P-9932) from Aspergillus niger Solution in 25-45% glycerol (actual glycerol content on label)
Unit Definition: one unit will liberate 1.0 μmole of galacturonic acid from polygalacturonic acid per min at pH 4.0 at 25° C.
SUBSTRATE: Pectin (Sigma No. P-9135) from Citrus fruits
Soln A: 0.1 M Citric acid--sodium citrate, pH 4.0 at 25° C. Dissolve 7.6 g citric acid and 12.05 g sodium citrate in 1 liter of DI H2 O. Adjust pH to 4.0. pH25° C. =4.013
Soln B: 1% Pectin in DI H2 O Boil 100 ml DI H2 O. Add 1 g pectin, stir by hand. Cover, boil for 2 minutes, stir by hand, boil for an additional 1 minute. Remove from heat and let cool for 10 minutes.
Soln C: Pectinase (50 U/ml) in Soln A Dilute 43.5 ml Pectinase to 50 ml with Soln A. Store in an amber bottle and refrigerate.
R=2.0 ml Soln B+0.5 ml Soln A
Fill the cuvettes with 2.0 ml of Soln B with a 1 cc syringe.
Fill 8 serum vials with 5.0 ml of Soln C Stopper and crimp to effect a gas tight system.
as §1
as §2, with “C” for “D”, “simultaneously, THEN IT WILL BE NECESSARY TO PULL AND PUSH PLUNGER FOUR TIMES TO EFFECT MIXING OF THE SUBSTRATE AND ENZYME IN THE CUVETTES,” for “simultaneously,”
as §3, §4

SMILES	Pectinesterase % Rate Difference ([1]; 10° C.)	Pectinesterase % Rate Difference ([1]; 25° C.)	Pectinesterase % Yield Difference ([1]; 25° C.)	Pectinesterase % Rate Difference ([1]; 35° C.)	Pectinesterase % Yield Difference ([1]; 35° C.)	Pectinase % Rate Difference ([2]; 25° C.)	Pectinase % Rate Difference ([2]; 35° C.)	Pectinase % Yield Difference ([2]; 35° C.)
[Ar] [Ar, argon]	5.0%	17.7%	2.1%	0.8%	0.70%	6.4%	18.3%	8.0%
[Kr] [Kr, krypton]	32.3%	29.4%	8.3%	0.8%	2.1%	2.1%	6.7%	1.4%
[Ne] [Ne, neon]	19.4%	0.0%	0.37%	1.6%	1.4%	4.3%	3.3%	3.3%
[Xe] [Xe, xenon]	29.0%	2.0%	0.70%	3.3%	0.0%	0.0%	15.0%	7.0%
